# Target: T1, CFTR (F508del/MF-HBE cells) (Homo sapiens, UniProt P13569, DEL508-508)
# T1 construct: human bronchial epithelial (HBE) cells derived from CF subjects heterozygous for F508del and a minimal function CFTR mutation; endogenous in cells; host or cells: primary human bronchial epithelial cells from CF subjects (F508del/MF genotype)
# Test: Ussing chamber assay of CFTR-mediated short-circuit currents (identification of potentiator compounds)
# Assay type: cell-based
# Settings: CFTR-mediated ISC in F508del/MF-HBE cells; incubated 18-24 hours at 37° C. with 10 μM (14S)-8-[3-(2-{dispiro[2.0.2.1]heptan-7-yl}ethoxy)-1H-pyrazol-1-yl]-...-2,2,4-trione, 20% human serum
# Procedure, shortened: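 F508del/minimal-function HBE cultures grown at air-liquid interface were incubated for 18–24 h at 37 °C with potentiator plus 10 μM corrector, in 20% human serum, and compounds stayed present during recording. Transepithelial ISC was recorded at 0 mV and 37 °C with 30 μM apical amiloride. CFTR current was taken as the peak response to 20 μM forskolin minus the steady state after a 20 μM inhibitor cocktail.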
# T1 sequence (P13569 with tags, fused parts or gaps DEL508-508): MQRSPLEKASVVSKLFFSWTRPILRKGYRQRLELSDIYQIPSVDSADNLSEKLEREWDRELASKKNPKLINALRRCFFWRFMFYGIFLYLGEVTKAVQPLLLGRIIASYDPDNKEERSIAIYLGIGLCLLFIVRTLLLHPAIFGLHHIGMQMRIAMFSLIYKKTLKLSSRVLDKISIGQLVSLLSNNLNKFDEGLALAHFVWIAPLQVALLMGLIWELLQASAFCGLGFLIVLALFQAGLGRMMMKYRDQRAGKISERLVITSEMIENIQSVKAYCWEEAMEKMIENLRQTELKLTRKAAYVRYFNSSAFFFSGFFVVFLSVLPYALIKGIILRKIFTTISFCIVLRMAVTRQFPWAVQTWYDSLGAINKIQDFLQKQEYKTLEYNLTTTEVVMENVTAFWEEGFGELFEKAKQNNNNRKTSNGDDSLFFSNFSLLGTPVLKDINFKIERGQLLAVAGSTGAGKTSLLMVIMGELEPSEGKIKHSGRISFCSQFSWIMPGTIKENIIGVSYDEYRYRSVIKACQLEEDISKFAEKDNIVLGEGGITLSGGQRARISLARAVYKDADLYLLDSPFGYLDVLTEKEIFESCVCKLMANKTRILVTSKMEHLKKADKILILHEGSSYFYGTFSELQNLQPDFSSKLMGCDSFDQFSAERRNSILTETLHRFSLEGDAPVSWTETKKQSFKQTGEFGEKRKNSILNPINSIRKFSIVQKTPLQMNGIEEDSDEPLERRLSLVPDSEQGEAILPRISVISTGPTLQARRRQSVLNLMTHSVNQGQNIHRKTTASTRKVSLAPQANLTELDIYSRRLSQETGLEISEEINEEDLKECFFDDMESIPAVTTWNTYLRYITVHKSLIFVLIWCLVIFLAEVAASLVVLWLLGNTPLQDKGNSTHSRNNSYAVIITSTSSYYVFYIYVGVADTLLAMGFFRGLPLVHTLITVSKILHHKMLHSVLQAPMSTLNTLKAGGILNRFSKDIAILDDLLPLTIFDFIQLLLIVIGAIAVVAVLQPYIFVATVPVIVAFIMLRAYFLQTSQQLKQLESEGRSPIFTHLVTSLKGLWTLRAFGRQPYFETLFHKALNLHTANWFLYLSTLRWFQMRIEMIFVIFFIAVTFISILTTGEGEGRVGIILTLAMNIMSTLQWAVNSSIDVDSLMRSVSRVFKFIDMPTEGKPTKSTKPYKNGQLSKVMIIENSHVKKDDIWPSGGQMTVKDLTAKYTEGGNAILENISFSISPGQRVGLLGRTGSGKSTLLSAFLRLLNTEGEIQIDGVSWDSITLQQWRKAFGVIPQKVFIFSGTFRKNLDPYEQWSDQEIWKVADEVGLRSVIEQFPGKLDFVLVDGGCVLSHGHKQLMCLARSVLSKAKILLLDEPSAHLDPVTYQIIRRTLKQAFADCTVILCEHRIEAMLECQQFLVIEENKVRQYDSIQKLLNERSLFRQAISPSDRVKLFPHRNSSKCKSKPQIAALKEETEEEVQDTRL
row,Compound,EC50
1,"Nc1cc(S(=O)(=O)c2ccc(OC(F)(F)F)cc2)c2nc1-c1nnc(o1)C(O)(C(F)(F)F)CCCCC[C@@H]1CCCN21 (single isomer, unassigned) [Compound 152]",< 500 nM
2,"Nc1cc(S(=O)(=O)c2ccc(OC(F)(F)F)cc2)c2nc1-c1nnc(o1)C(O)(C(F)(F)F)CCCCC[C@@H]1CCCN21 (single isomer, unassigned) [Compound 153]",> 1000 nM
3,"Nc1cc(C(F)(F)F)c2nc1-c1nnc(o1)[C@@](O)(C(F)(F)F)CCCCCC(C(=O)O)N2 (single isomer, unassigned) [Compound 156]",< 500 nM
4,"Nc1cc(C(F)(F)F)c2nc1-c1nnc(o1)[C@@](O)(C(F)(F)F)CCCCCC(C(=O)N1CCCC1)N2 (single isomer, unassigned) [Compound 157]",< 500 nM
5,"Nc1cc(C(F)(F)F)c2nc1-c1nnc(o1)[C@@](O)(C(F)(F)F)CCCCCC(C(=O)N1CCCC1)N2 (single isomer, unassigned) [Compound 158]",> 1000 nM
6,"COc1cc2nc(c1N)-c1nnc(o1)C(O)(C(F)(F)F)CCCCC[C@@H]1CCCN21 (single isomer, unassigned) [Compound 160]",> 1000 nM
7,"COC(=O)c1cc(N)c2nc1N1CCC[C@H]1CCCCCC(O)(C(F)(F)F)C1=NN=C2O1 (single isomer, unassigned) [Compound 169]",> 1000 nM
8,"COC(=O)c1cc(N)c2nc1N1CCC[C@H]1CCCCCC(O)(C(F)(F)F)C1=NN=C2O1 (single isomer, unassigned) [Compound 170]",< 500 nM
9,"CC1(C)CCCCC(O)(C(F)(F)F)C2=NN=C(O2)c2nc(c(C(F)(F)F)cc2N)NC1 (single isomer, unassigned) [Compound 171, 17-amino-11,11-dimethyl-6,15-bis(trifluoromethyl)-19-oxa-3,4,13,18-tetrazatricyclo[12.3.1.12,5]nonadeca-1(18),2,4,14,16-pentaen-6-ol]",< 500 nM
10,"CC1(C)CCCCC(O)(C(F)(F)F)C2=NN=C(O2)c2nc(c(C(F)(F)F)cc2N)NC1 (single isomer, unassigned) [Compound 172, 17-amino-11,11-dimethyl-6,15-bis(trifluoromethyl)-19-oxa-3,4,13,18-tetrazatricyclo[12.3.1.12,5]nonadeca-1(18),2,4,14,16-pentaen-6-ol]",< 500 nM
11,"CC1(CO)CCCCC[C@](O)(C(F)(F)F)C2=NN=C(O2)c2nc(c(C(F)(F)F)cc2N)N1 (single isomer, unassigned) [Compound 174]",< 500 nM
12,"CC(C)C1CCCCC[C@](O)(C(F)(F)F)C2=NN=C(O2)c2nc(c(C(F)(F)F)cc2N)N1 (single isomer, unassigned) [Compound 178]",< 500 nM
13,"CC(C)C1CCCCC[C@](O)(C(F)(F)F)C2=NN=C(O2)c2nc(c(C(F)(F)F)cc2N)N1 (single isomer, unassigned) [Compound 179]",< 500 nM
14,"Nc1cc(C(F)(F)F)c2nc1-c1nnc(o1)[C@@](O)(C(F)(F)F)CCCCCC(Cc1ccccc1)N2 (single isomer, unassigned) [Compound 180]",< 500 nM
15,"Nc1cc(C(F)(F)F)c2nc1-c1nnc(o1)[C@@](O)(C(F)(F)F)CCCCCC(c1ccc(F)cc1)N2 (single isomer, unassigned) [Compound 182]",< 500 nM
16,"Nc1cc(C(F)(F)F)c2nc1-c1nnc(o1)[C@@](O)(C(F)(F)F)CCCCCC(c1ncco1)N2 (single isomer, unassigned) [Compound 184]",< 500 nM
17,"CC1(C)CCC(O)CC[C@](O)(C(F)(F)F)C2=NN=C(O2)c2nc(c(C(F)(F)F)cc2N)N1 (single isomer, unassigned) [Compound 189]",> 1000 nM
18,"CC1(C)CCC(O)CC[C@](O)(C(F)(F)F)C2=NN=C(O2)c2nc(c(C(F)(F)F)cc2N)N1 (single isomer, unassigned) [Compound 190]",< 500 nM
19,"Nc1cc(C(F)(F)F)c2nc1-c1nnc(o1)[C@@](O)(C(F)(F)F)CCCCCC(C1CC1)N2 (single isomer, unassigned) [Compound 192]",< 500 nM
20,"CC1(C)CCCCC(O)C(O)(C(F)(F)F)C2=NN=C(O2)c2nc(c(C(F)(F)F)cc2N)N1 (single isomer, unassigned) [Compound 195, 17-amino-12,12-dimethyl-6,15-bis(trifluoromethyl)-19-oxa-3,4,13,18-tetrazatricyclo[12.3.1.12,5]nonadeca-1(18),2,4,14,16-pentaene-6,7-diol]",> 1000 nM

# Other lines, results leading:
row,EC50,Compound
1,> 1000 nM,"CN(C)C(=O)C1CCCCCC(O)(C(F)(F)F)C2=NN=C(O2)c2nc(c(C(F)(F)F)cc2N)N1 (single isomer, unassigned) [Compound 150, 17-amino-6-hydroxy-N,N-dimethyl-6,15-bis(trifluoromethyl)-19-oxa-3,4,13,18-tetrazatricyclo[12.3.1.12,5]nonadeca-1(18),2,4,14,16-pentaene-12-carboxamide]"
2,> 1000 nM,"CN(C)C(=O)C1CCCCCC(O)(C(F)(F)F)C2=NN=C(O2)c2nc(c(C(F)(F)F)cc2N)N1 (single isomer, unassigned) [Compound 151, 17-amino-6-hydroxy-N,N-dimethyl-6,15-bis(trifluoromethyl)-19-oxa-3,4,13,18-tetrazatricyclo[12.3.1.12,5]nonadeca-1(18),2,4,14,16-pentaene-12-carboxamide]"
3,> 1000 nM,"Nc1cc(C(F)(F)F)c2nc1-c1nnc(o1)[C@@](O)(C(F)(F)F)CCCCCC(C(=O)O)N2 (single isomer, unassigned) [Compound 155]"
4,> 1000 nM,"COc1cc2nc(c1N)-c1nnc(o1)C(O)(C(F)(F)F)CCCCC[C@@H]1CCCN21 (single isomer, unassigned) [Compound 159]"
5,< 500 nM,"CS(=O)(=O)c1cc(N)c2nc1N1CCC[C@H]1CCCCCC(O)(C(F)(F)F)C1=NN=C2O1 (single isomer, unassigned) [Compound 161]"
6,< 500 nM,"Nc1cc(C(F)(F)F)c2nc1-c1nnc(o1)C(O)(C(F)(F)F)CCCOC[C@@H]1CCCN21 (single isomer, unassigned) [Compound 167]"
7,< 500 nM,"CC1(CO)CCCCC[C@](O)(C(F)(F)F)C2=NN=C(O2)c2nc(c(C(F)(F)F)cc2N)N1 (single isomer, unassigned) [Compound 175]"
8,< 500 nM,"Nc1cc(C(F)(F)F)c2nc1-c1nnc(o1)[C@@](O)(C(F)(F)F)CCCCCC(C1CC1)N2 (single isomer, unassigned) [Compound 191]"
9,< 500 nM,"CC1(C)CCCCC(O)C(O)(C(F)(F)F)C2=NN=C(O2)c2nc(c(C(F)(F)F)cc2N)N1 (single isomer, unassigned) [Compound 194, 17-amino-12,12-dimethyl-6,15-bis(trifluoromethyl)-19-oxa-3,4,13,18-tetrazatricyclo[12.3.1.12,5]nonadeca-1(18),2,4,14,16-pentaene-6,7-diol]"
10,< 500 nM,"CC1(C)CCCOCC(O)(C(F)(F)F)C2=NN=C(O2)c2nc(c(C(F)(F)F)cc2N)N1 (single isomer, unassigned) [Compound 197, 17-amino-12,12-dimethyl-6,15-bis(trifluoromethyl)-8,19-dioxa-3,4,13,18-tetrazatricyclo[12.3.1.12,5]nonadeca-1(18),2,4,14,16-pentaen-6-ol]"
